In the supplement of paper PMC10307832:

Tests used:
Test in all cases: relative viability (nuclei count vs DMSO), 5 days (fraction); higher = more cells survive
[1] = compound: CC1=CC=C(C=C1)C(=O)CN2C3=C(CCCC3)SC2=N [Pifithrin_alpha] + CCNC(=O)c1noc(-c2cc(C(C)C)c(O)cc2O)c1-c1ccc(CN2CCOCC2)cc1 [Luminespib] (partner 0.01 µM)
Procedure, shortened: (§1)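 Lung cancer cell lines, seeded in 1536-well plates, were treated the following day by pin tool with a single drug or with five library-drug doses (not always all listed) in √10 steps on top of a fixed anchor-drug dose. Cells were fixed and nuclei stained in one step after 5 days, and nuclei were counted. Relative viability is the nuclei count for treated wells divided by that for vehicle wells, reported as medians of duplicate plates.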

Bemcentinib + Vorinostat = compound: Nc1nc(Nc2ccc3c(c2)CC[C@@H](N2CCCC2)CC3)nn1-c1cc2c(nn1)-c1ccccc1CCC2 [Bemcentinib] + O=C(CCCCCCC(=O)Nc1ccccc1)NO [Vorinostat] (partner 1 µM)
Procedure, shortened: as §1

Axitinib + Vorinostat = compound: CNC(=O)c1ccccc1Sc1ccc2c(/C=C/c3ccccn3)n[nH]c2c1 [Axitinib] + O=C(CCCCCCC(=O)Nc1ccccc1)NO [Vorinostat] (partner 1 µM)
Procedure, shortened: as §1

Bemcentinib + Pictilisib = compound: Nc1nc(Nc2ccc3c(c2)CC[C@@H](N2CCCC2)CC3)nn1-c1cc2c(nn1)-c1ccccc1CCC2 [Bemcentinib] + CS(=O)(=O)N1CCN(Cc2cc3nc(-c4cccc5[nH]ncc45)nc(N4CCOCC4)c3s2)CC1 [Pictilisib] (partner 1 µM)
Procedure, shortened: as §1

Row | Cell Line | relative viability ([1]; first compound 1 µM) | relative viability ([1]; first compound 3.162 µM) | relative viability ([1]; first compound 10 µM) | relative viability ([1]; first compound 31.62 µM) | relative viability ([1]; first compound 100 µM) | relative viability (Bemcentinib + Vorinostat; first compound 0.04 µM) | relative viability (Bemcentinib + Vorinostat; first compound 0.1265 µM) | relative viability (Bemcentinib + Vorinostat; first compound 0.4 µM) | relative viability (Bemcentinib + Vorinostat; first compound 1.265 µM) | relative viability (Bemcentinib + Vorinostat; first compound 4 µM) | relative viability (Axitinib + Vorinostat; first compound 0.005 µM) | relative viability (Axitinib + Vorinostat; first compound 0.01581 µM) | relative viability (Axitinib + Vorinostat; first compound 0.05 µM) | relative viability (Axitinib + Vorinostat; first compound 0.1581 µM) | relative viability (Axitinib + Vorinostat; first compound 0.5 µM) | relative viability (Bemcentinib + Pictilisib; first compound 0.04 µM) | relative viability (Bemcentinib + Pictilisib; first compound 0.1265 µM) | relative viability (Bemcentinib + Pictilisib; first compound 0.4 µM) | relative viability (Bemcentinib + Pictilisib; first compound 1.265 µM) | relative viability (Bemcentinib + Pictilisib; first compound 4 µM)
1 | NCI-H322M | 0.865 | 0.868 | 0.841 | 0.647 | 0.766 | 0.863 | 0.931 | 0.836 | 0.952 | 0.899 | 0.908 | 0.836 | 0.827 | 0.767 | 0.962 | 0.512 | 0.522 | 0.418 | 0.525 | 0.564
2 | NCI-H358 | 0.462 | 0.478 | 0.26 | 0.247 | 0.324 | 0.665 | 0.745 | 0.701 | 0.806 | 0.839 | 0.698 | 0.675 | 0.689 | 0.573 | 0.726 | 0.331 | 0.347 | 0.336 | 0.372 | 0.359
3 | NCI-H441 | 0.355 | 0.369 | 0.383 |  | 0.464 | 0.691 | 0.824 | 0.735 | 0.87 | 0.756 | 0.78 | 0.659 | 0.855 | 0.627 | 0.911 | 0.572 | 0.53 | 0.575 | 0.509 | 0.399
4 | NCI-H460 | 0.0365 | 0.032 | 0.0293 | 0.0251 | 0.0317 | 0.696 | 0.981 | 1.21 | 0.838 | 0.73 | 0.758 | 0.772 | 0.734 | 0.732 | 0.914 | 0.252 | 0.267 | 0.412 | 0.26 | 0.374
5 | NCI-H520 | 0.213 | 0.21 | 0.24 |  | 0.223 | 0.678 | 0.902 | 0.83 | 0.626 | 0.761 | 0.797 | 0.678 | 0.686 | 0.691 | 0.801 | 0.289 | 0.309 | 0.316 | 0.288 | 0.406
6 | NCI-H596 | 0.991 | 1.1 | 1.02 | 0.507 | 0.566 | 0.582 | 0.449 | 0.721 | 0.391 | 0.674 | 0.764 | 0.627 | 0.576 | 0.558 | 0.575 | 0.374 | 0.443 | 0.379 | 0.421 | 0.403
7 | NCI-H647 | 0.356 | 0.26 | 0.157 | 0.103 | 0.177 | 0.649 | 0.55 | 0.594 | 0.424 | 0.675 | 0.63 | 0.71 | 0.572 | 0.548 | 0.605 | 0.385 | 0.602 | 0.427 | 0.455 | 0.363
8 | NCI-H661 | 0.912 | 0.915 | 0.949 | 0.881 | 0.921 | 0.774 | 0.778 | 0.849 | 0.789 | 0.838 | 0.79 | 0.861 | 0.776 | 0.779 | 0.873 | 0.318 | 0.449 | 0.422 | 0.357 | 0.369
9 | NCI-H727 | 0.44 | 0.238 | 0.491 |  | 0.263 | 1.02 | 1.14 | 1.18 | 0.858 | 1.2 | 1.16 | 1.33 | 1.16 | 1.35 | 1.21 | 0.221 | 0.358 | 0.413 | 0.41 | 0.456
10 | NCI-H838 | 0.248 | 0.292 | 0.263 | 0.237 | 0.198 | 0.746 | 0.799 | 0.718 | 0.82 | 0.719 | 0.814 | 0.725 | 0.792 | 0.707 | 0.752 | 0.441 | 0.442 | 0.639 | 0.485 | 0.459
11 | NCI-H1355 | 0.642 | 0.496 | 0.516 | 0.401 | 0.409 | 0.596 | 0.617 | 0.701 | 0.65 | 0.687 | 0.661 | 0.575 | 0.69 | 0.604 | 0.542 | 0.405 | 0.389 | 0.452 | 0.444 | 0.458
12 | NCI-H1395 | 0.704 | 0.518 | 0.631 | 0.663 | 0.657 |  | 0.681 | 0.674 | 0.716 | 0.634 | 0.706 | 0.529 | 0.709 | 0.639 | 0.649 | 0.787 | 0.619 | 0.83 | 0.612 | 0.674
13 | NCI-H1437 | 1.27 | 1.2 | 1.08 | 0.728 | 0.947 | 0.857 | 0.914 | 0.97 | 0.955 | 0.889 | 0.942 | 0.85 | 0.86 | 0.876 | 0.78 | 0.457 | 0.479 | 0.418 | 0.409 | 0.448
14 | NCI-H1650 |  | 0.223 | 0.176 | 0.209 | 0.169 | 0.515 | 0.713 | 0.753 | 0.576 | 0.553 | 0.699 | 0.616 | 0.694 | 0.5 | 0.754 | 0.526 | 0.519 | 0.548 | 0.631 | 0.731
15 | NCI-H1651 | 0.988 | 1.27 | 0.944 | 0.438 | 0.625 | 0.532 | 0.557 | 0.569 | 0.476 | 0.613 | 0.563 | 0.542 | 0.537 | 0.548 | 0.59 | 0.622 | 0.678 | 0.64 | 0.451 | 0.739
16 | NCI-H1666 | 1.05 | 1.01 | 0.877 | 0.821 | 0.645 | 1.02 | 1.24 | 1.07 | 1 | 0.998 | 1.07 | 1.14 | 1.02 | 1.09 | 1.11 | 0.313 | 0.596 | 0.427 | 0.43 | 0.55
17 | NCI-H1734 | 0.184 | 0.186 | 0.191 | 0.159 | 0.18 | 0.788 | 0.773 | 0.853 | 0.833 | 0.828 | 0.787 | 0.891 | 0.865 | 0.903 | 0.964 | 0.461 | 0.487 | 0.486 | 0.48 | 0.45
18 | NCI-H1755 | 0.5 | 0.601 | 0.562 | 0.315 | 0.272 | 0.783 | 0.808 | 0.754 | 0.823 | 0.923 | 0.77 | 0.8 | 0.797 | 0.714 | 0.572 | 0.331 | 0.459 | 0.496 | 0.485 | 0.443
19 | NCI-H1793 |  | 0.168 | 0.17 | 0.186 | 0.194 | 0.63 | 1.15 | 0.74 | 0.461 | 0.699 | 0.955 | 0.679 | 0.693 | 0.637 | 0.678 | 0.414 | 0.38 | 0.454 | 0.395 | 0.361
20 | NCI-H1915 | 0.972 | 1.25 |  |  | 1.08 | 0.508 | 0.518 | 0.547 | 0.55 | 0.491 | 0.552 | 0.516 | 0.508 | 0.536 | 0.517 | 0.893 | 1.04 | 0.975 | 0.962 | 0.943
21 | NCI-H1944 | 0.694 | 0.633 | 0.588 | 0.42 | 0.504 | 0.521 | 0.611 | 0.608 | 0.527 | 0.561 | 0.616 | 0.54 | 0.585 | 0.498 | 0.518 | 0.356 | 0.342 | 0.371 | 0.357 | 0.343
22 | NCI-H1975 | 0.291 | 0.151 | 0.199 | 0.189 | 0.181 | 0.709 | 0.805 | 0.776 | 0.808 | 0.777 | 0.704 | 0.729 | 0.715 | 0.644 | 0.733 | 0.279 | 0.291 | 0.301 | 0.28 | 0.277
23 | NCI-H1993 | 0.716 | 0.658 | 0.704 | 0.621 | 0.66 | 0.739 | 0.716 | 1.07 | 0.981 | 1.05 | 0.826 | 0.835 | 0.734 | 0.722 | 0.876 | 0.833 | 0.853 | 0.834 | 0.904 | 0.777
24 | NCI-H2009 | 1.07 | 1.04 | 0.926 | 0.701 | 0.967 | 0.671 | 0.783 | 0.71 | 0.723 | 0.722 | 0.732 | 0.783 | 0.736 | 0.716 | 0.821 | 0.753 | 0.928 | 0.855 | 0.914 | 0.888
25 | NCI-H2023 | 0.544 | 0.637 | 0.364 | 0.277 | 0.34 | 0.77 | 0.783 | 0.619 | 0.748 | 0.66 | 0.545 | 0.604 | 0.607 | 0.557 | 0.796 | 0.205 | 0.261 | 0.239 | 0.276 | 0.248
26 | NCI-H2085 |  | 0.404 | 0.513 | 0.387 | 0.387 | 0.762 | 0.822 | 0.778 | 0.795 | 0.764 | 0.823 | 0.788 | 0.883 | 0.758 | 0.812 | 0.44 | 0.468 | 0.418 | 0.459 | 0.451
27 | NCI-H2087 | 0.169 | 0.172 | 0.153 |  | 0.135 | 0.567 | 0.836 | 1.1 | 0.665 | 0.678 | 0.618 | 0.626 | 0.741 | 0.699 | 0.936 | 0.813 | 0.973 | 1.03 | 0.813 | 0.89
